Data published in patent US9834571B2, “Compounds for inhibiting cell proliferation in EGFR-driven cancers” (ARIAD Pharmaceuticals, Inc., priority 2012, dated 2017).
Like-named read-outs stand apart in the source and are kept apart here.

What was measured:
EGFR L858R/T790M = EGFR L858R/T790M (Homo sapiens, UniProt P00533, L858R/T790M); assay: Kinase inhibitory activity against EGFR bearing the L858R/T790M double mutation; assay type: biochemical; details: 10 μM ATP, read-out: IC50 for kinase inhibition, EGFR L858R T790M
Summary of the method: (§1)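 ATP was held at 10 μM while inhibition was measured across a 10-point series capped at 3 μM, single replicates.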

[1] = target: human EGFR (native sequence) (Homo sapiens, UniProt P00533); assay: Kinase inhibitory activity against human EGFR (native sequence); assay type: biochemical; details: 10 μM ATP, read-out: IC50 for kinase inhibition, EGFR
Sequence of human EGFR (native sequence) (P00533 25-1210): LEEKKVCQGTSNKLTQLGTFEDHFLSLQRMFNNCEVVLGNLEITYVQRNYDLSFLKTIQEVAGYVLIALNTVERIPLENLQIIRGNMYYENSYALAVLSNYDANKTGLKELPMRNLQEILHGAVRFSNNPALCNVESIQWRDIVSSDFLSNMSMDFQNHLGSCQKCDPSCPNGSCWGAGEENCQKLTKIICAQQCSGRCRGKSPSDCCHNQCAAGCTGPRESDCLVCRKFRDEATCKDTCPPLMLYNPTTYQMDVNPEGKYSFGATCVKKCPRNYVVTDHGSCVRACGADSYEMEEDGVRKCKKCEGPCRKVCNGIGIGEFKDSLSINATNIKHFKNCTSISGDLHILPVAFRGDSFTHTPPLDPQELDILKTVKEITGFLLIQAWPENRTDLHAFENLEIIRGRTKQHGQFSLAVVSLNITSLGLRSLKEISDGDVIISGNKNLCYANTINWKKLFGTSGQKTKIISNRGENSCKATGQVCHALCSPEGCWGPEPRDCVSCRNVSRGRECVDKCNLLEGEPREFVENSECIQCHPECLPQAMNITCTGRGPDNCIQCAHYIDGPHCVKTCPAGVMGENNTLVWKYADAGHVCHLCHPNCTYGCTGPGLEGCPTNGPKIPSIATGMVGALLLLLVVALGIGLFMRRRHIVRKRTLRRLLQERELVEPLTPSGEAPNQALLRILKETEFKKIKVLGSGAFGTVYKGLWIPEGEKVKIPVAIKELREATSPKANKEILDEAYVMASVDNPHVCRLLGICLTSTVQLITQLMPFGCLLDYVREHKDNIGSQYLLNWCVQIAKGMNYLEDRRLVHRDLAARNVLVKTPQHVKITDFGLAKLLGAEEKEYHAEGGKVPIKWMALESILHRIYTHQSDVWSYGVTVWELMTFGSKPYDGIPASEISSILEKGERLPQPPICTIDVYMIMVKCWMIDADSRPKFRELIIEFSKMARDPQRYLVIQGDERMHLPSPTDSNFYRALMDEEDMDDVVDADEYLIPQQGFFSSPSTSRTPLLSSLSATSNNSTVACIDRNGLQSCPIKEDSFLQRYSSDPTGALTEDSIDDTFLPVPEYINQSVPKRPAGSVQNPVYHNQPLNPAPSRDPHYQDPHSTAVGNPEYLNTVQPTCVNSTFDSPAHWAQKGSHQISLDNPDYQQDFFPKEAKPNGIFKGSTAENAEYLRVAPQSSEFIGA
Summary of the method: as §1

[2] = target: T1, BaF3 cells expressing the target EGFR mutations (Homo sapiens, UniProt P00533, T790M/L858R, cells depend on it); assay: Antiproliferative activity (MTT) against BaF3 cells expressing the target EGFR mutations; assay type: cell-based; details: BAF3 EGFR L858R-T790M PURO POOL cells, read-out: IC50, BAF3 EGFR L858R-T790M PURO POOL
T1 construct: IC50, BAF3 EGFR L858R-T790M PURO POOL; other: BAF3 EGFR L858R-T790M PURO POOL cells, MTT; IC50, BAF3 EGFR L858R-T790M PURO POOL; other: BAF3 EGFR L858R-T790M PURO POOL cells; MTT
T1 sequence (P00533 whole entry T790M/L858R): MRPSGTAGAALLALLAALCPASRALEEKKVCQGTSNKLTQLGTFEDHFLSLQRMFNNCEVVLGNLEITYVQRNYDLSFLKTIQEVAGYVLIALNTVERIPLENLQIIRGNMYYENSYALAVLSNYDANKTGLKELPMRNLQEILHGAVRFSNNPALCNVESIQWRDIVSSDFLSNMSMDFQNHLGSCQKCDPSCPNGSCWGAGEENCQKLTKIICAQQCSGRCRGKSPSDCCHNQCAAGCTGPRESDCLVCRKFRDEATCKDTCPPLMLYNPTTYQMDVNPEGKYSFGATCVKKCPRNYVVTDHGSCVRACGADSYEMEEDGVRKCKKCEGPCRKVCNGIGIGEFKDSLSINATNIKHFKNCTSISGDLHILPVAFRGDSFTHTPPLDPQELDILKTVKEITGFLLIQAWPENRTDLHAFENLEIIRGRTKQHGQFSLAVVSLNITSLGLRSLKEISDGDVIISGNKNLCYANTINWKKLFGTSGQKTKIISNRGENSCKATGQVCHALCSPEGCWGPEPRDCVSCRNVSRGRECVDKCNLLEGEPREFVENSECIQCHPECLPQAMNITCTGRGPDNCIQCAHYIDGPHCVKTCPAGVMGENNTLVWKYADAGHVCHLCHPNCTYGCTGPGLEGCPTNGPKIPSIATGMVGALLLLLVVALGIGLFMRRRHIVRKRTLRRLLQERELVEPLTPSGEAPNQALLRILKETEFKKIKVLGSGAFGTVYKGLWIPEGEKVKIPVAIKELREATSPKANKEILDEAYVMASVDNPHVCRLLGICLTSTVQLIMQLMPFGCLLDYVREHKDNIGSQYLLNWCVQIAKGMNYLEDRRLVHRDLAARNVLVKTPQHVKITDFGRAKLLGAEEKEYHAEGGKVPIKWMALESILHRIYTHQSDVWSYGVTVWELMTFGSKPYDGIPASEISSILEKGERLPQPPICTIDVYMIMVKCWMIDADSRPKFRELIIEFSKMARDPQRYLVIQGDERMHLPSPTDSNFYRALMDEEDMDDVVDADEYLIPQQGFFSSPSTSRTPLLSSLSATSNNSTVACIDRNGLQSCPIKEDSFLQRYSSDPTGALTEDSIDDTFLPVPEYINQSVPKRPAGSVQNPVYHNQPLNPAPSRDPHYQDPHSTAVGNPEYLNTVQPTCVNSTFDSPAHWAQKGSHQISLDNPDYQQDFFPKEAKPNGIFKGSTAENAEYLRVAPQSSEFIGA
Summary of the method: (§2)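 MTT read-out; BaF3 lines carrying EGFR mutations vs wildtype-EGFR BaF3 control.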

[3] = target: T2, BaF3 cells expressing the target EGFR mutations (Homo sapiens, UniProt P00533, T790M, cells depend on it, form not given); assay: as above; assay type: cell-based; details: BAF3 EGFR DEL T790M PURO POOL cells, read-out: IC50, BAF3 EGFR DEL T790M PURO POOL
T2 construct: IC50, BAF3 EGFR DEL T790M PURO POOL; other: BAF3 EGFR DEL T790M PURO POOL cells, MTT; other: BAF3 EGFR DEL T790M PURO POOL cells; MTT
T2 sequence (P00533 with tags, fused parts or gaps DEL746-750/T790M, form open): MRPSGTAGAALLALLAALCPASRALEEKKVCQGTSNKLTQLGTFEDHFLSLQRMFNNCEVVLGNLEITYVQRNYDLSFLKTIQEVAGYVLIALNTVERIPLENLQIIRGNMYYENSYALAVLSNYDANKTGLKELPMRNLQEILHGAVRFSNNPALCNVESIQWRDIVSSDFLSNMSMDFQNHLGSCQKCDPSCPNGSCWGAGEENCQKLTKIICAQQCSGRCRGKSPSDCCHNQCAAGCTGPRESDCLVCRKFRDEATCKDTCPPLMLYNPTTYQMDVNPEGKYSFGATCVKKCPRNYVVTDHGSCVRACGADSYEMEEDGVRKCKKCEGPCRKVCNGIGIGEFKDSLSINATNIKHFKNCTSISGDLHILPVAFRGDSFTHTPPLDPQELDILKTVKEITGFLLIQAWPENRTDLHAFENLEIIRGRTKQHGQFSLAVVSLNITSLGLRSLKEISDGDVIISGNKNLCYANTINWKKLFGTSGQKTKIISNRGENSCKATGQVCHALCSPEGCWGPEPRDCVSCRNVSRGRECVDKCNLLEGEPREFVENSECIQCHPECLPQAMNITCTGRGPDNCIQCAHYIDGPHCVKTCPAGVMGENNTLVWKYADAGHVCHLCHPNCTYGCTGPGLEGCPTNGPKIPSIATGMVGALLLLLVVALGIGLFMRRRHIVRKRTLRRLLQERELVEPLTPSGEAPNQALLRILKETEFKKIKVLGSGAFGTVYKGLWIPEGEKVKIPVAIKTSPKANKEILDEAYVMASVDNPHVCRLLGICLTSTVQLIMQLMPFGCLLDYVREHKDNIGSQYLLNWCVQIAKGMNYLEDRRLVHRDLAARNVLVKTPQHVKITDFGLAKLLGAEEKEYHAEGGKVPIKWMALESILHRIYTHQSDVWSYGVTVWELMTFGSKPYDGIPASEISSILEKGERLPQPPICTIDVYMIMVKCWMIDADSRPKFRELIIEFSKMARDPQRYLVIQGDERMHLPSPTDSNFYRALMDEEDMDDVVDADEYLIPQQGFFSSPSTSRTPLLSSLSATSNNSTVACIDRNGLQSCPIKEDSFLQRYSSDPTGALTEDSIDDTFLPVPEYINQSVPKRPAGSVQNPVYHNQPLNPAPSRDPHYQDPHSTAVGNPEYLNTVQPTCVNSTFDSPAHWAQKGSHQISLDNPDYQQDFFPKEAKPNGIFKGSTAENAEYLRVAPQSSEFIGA
Summary of the method: as §2

[4] = test system: BaF3 cells expressing wildtype EGFR; assay: Antiproliferative activity (MTT) against control BaF3 cells expressing wildtype EGFR; assay type: cell-based; details: Mus musculus
Summary of the method: as §2

EGFR L858R = EGFR L858R (Homo sapiens, UniProt P00533, L858R); assay: Kinase inhibitory activity against EGFR bearing the L858R mutation; assay type: biochemical; details: 10 μM ATP, read-out: IC50 for kinase inhibition, EGFR L858R
Sequence of EGFR L858R (P00533 25-1210 L858R): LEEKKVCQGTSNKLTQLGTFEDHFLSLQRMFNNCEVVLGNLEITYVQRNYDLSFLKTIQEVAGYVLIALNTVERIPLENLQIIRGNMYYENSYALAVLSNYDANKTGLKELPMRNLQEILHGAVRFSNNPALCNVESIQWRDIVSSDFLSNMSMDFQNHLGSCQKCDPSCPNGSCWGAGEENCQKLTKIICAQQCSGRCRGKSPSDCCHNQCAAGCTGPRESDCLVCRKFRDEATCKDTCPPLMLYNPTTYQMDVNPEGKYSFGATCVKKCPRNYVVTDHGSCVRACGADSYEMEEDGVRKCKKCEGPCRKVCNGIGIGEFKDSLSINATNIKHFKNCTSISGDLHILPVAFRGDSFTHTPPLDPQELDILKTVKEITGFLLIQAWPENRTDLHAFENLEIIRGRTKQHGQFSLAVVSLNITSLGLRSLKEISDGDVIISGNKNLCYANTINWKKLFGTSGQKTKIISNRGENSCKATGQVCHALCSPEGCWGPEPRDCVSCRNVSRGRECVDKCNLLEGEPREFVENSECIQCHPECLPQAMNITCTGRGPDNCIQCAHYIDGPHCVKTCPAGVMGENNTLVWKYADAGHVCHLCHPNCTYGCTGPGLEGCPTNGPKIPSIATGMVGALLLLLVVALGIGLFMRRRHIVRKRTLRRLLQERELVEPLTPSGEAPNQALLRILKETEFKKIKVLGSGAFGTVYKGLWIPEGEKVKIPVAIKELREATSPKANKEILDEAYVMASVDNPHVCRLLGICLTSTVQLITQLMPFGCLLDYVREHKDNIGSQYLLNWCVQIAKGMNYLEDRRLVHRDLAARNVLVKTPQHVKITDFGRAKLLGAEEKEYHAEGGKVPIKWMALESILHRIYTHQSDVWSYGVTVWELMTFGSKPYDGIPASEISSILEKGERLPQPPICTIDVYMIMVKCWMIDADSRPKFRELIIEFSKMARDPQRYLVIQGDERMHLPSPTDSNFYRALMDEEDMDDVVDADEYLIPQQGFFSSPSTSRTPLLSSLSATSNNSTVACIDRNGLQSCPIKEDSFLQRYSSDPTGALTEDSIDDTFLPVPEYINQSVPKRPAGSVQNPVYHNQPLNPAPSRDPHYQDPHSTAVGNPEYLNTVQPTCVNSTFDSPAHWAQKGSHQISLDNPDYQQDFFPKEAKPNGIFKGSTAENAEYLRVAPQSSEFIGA
Summary of the method: as §1

[5] = 10 pt curves, 3 μM top concentration
[6] = EGFR L858R/T790M double mutation

Row | SMILES | IC50 (EGFR L858R/T790M; [5]) [nM] | IC50 [1, 5] [nM] | GI50 [2] [nM] | GI50 [3] [nM] | IC50 (EGFR L858R; [5]) [nM] | IC50 (EGFR L858R/T790M; [6]) [nM] | IC50 ([1]; human EGFR native sequence) [nM] | IC50 (EGFR L858R; EGFR L858R) [nM] | IC50 ([4]; BAF3 parental cells) [nM] | IC50 ([4]; BAF3 PARENTAL cells (control)) [nM]
1 | C=C(CN1CCNC(=O)C1)C(=O)Nc1ccc(OC)c(Nc2ncc(Cl)c(Nc3ccccc3P(C)(C)=O)n2)c1 [Example 47, N-(3-((5-chloro-4-((2-(dimethylphosphoryl)phenyl)amino)pyrimidin-2-yl)amino)-4-methoxyphenyl)-2-((3-oxopiperazin-1-yl)methyl)acrylamide] | – | – | ≥ 250 | 101 to 250 | – | < 50 | < 50 | < 50 | – | ≥ 250
2 | COc1ccc(NC(=O)/C=C\C(=O)NCCN(C)C)cc1Nc1ncc(Cl)c(Nc2ccccc2P(C)(C)=O)n1 [Example 64, N1-(3-((5-chloro-4-((2-(dimethylphosphoryl)phenyl)amino)pyrimidin-2-yl)amino)-4-methoxyphenyl)-N4-(2-(dimethylamino)ethyl)maleamide] | – | – | ≥ 250 | ≥ 250 | – | < 50 | ≥ 250 | < 50 | – | ≥ 250
3 | C=CC(=O)Nc1cc(Nc2ncc(Cl)c(Nc3ccccc3P(C)(C)=O)n2)c(OC)cc1C#CC(C)(C)N(CC)CC [Example 154, N-(5-((5-chloro-4-((2-(dimethylphosphoryl)phenyl)amino)pyrimidin-2-yl)amino)-2-(3-(diethylamino)-3-methylbut-1-yn-1-yl)-4-methoxyphenyl)acrylamide] | < 50 | < 50 | < 50 | < 50 | < 50 | – | – | – | ≥ 250 | –
4 | C=CC(=O)Nc1cc(Nc2ncc(Cl)c(Nc3ccccc3P(C)(C)=O)n2)c(OC)cc1C#CCN(C(C)C)C(C)C [Example 158, N-(5-((5-chloro-4-((2-(dimethylphosphoryl)phenyl)amino)pyrimidin-2-yl)amino)-2-(3-(diisopropylamino)prop-1-yn-1-yl)-4-methoxyphenyl)acrylamide] | < 50 | < 50 | < 50 | < 50 | < 50 | – | – | – | ≥ 250 | –
5 | C=CC(=O)Nc1cc(Nc2ncc(Cl)c(Nc3ccccc3P(C)(C)=O)n2)c(OC)cc1CN1CCN(C)CC1 [Example 55, N-(5-((5-chloro-4-((2-(dimethylphosphoryl)phenyl)amino)pyrimidin-2-yl)amino)-4-methoxy-2-((4-methylpiperazin-1-yl)methyl)phenyl)acrylamide] | – | – | 50 to 100 | < 50 | – | < 50 | < 50 | < 50 | – | ≥ 250
6 | C=CC(=O)Nc1cc(Nc2ncc(Cl)c(Nc3ccccc3P(C)(C)=O)n2)c(OC)cc1C#CC(C)(C)N(C)C [Example 155, N-(5-((5-chloro-4-((2-(dimethylphosphoryl)phenyl)amino)pyrimidin-2-yl)amino)-2-(3-(dimethylamino)-3-methylbut-1-yn-1-yl)-4-methoxyphenyl)acrylamide] | < 50 | < 50 | < 50 | < 50 | < 50 | – | – | – | ≥ 250 | –
7 | C=C(Cl)C(=O)Nc1ccc(OC)c(Nc2ncc(Cl)c(Nc3ccccc3P(C)(C)=O)n2)c1 [Example 132, 2-chloro-N-(3-((5-chloro-4-((2-(dimethylphosphoryl)phenyl)amino)pyrimidin-2-yl)amino)-4-methoxyphenyl)acrylamide] | < 50 | < 50 | 101 to 250 | < 50 | < 50 | – | – | – | ≥ 250 | –
8 | C=CC(=O)Nc1cc(Nc2ncc(Cl)c(Nc3ccccc3P(C)(C)=O)n2)c(OC)cc1OC1COC1 [Example 9, N-(5-((5-chloro-4-((2-(dimethylphosphoryl)phenyl)amino)pyrimidin-2-yl)amino)-4-methoxy-2-(oxetan-3-yloxy)phenyl)acrylamide] | – | – | 50 to 100 | < 50 | – | < 50 | ≥ 250 | < 50 | – | ≥ 250
9 | C=C(CN1CCOCC1)C(=O)Nc1ccc(OC)c(Nc2ncc(Cl)c(Nc3ccccc3P(C)(C)=O)n2)c1 [Example 48, N-(3-((5-chloro-4-((2-(dimethylphosphoryl)phenyl)amino)pyrimidin-2-yl)amino)-4-methoxyphenyl)-2-(morpholinomethyl)acrylamide] | – | – | < 50 | < 50 | – | < 50 | < 50 | < 50 | – | ≥ 250
10 | C=CC(=O)Nc1cc(Nc2ncc(Cl)c(Nc3ccccc3P(C)(C)=O)n2)c(OC)cc1N1CCC(N2CCC2)C1 (stereo not drawn) [Example 68, N-(2-(3-(azetidin-1-yl)pyrrolidin-1-yl)-5-((5-chloro-4-((2-(dimethylphosphoryl)phenyl)amino)pyrimidin-2-yl)amino)-4-methoxyphenyl)acrylamide] | – | – | < 50 | < 50 | – | < 50 | < 50 | < 50 | – | ≥ 250
11 | COc1ccc(NC(=O)C#CC(C)(C)N2CCCC2)cc1Nc1ncc(Cl)c(Nc2ccccc2P(C)(C)=O)n1 [Example 91, N-(3-((5-chloro-4-((2-(dimethylphosphoryl)phenyl)amino)pyrimidin-2-yl)amino)-4-methoxyphenyl)-4-methyl-4-(pyrrolidin-1-yl)pent-2-ynamide] | – | – | < 50 | < 50 | – | < 50 | < 50 | < 50 | – | ≥ 250
12 | C=CC(=O)Nc1cc(Nc2ncc(Cl)c(Nc3ccccc3P(C)(C)=O)n2)c(OC)cc1N1CCC(N2CCN(CCO)CC2)C1 (stereo not drawn) [Example 40, N-(5-((5-chloro-4-((2-(dimethylphosphoryl)phenyl)amino)pyrimidin-2-yl)amino)-2-(3-(4-(2-hydroxyethyl)piperazin-1-yl)pyrrolidin-1-yl)-4-methoxyphenyl)acrylamide] | – | – | ≥ 250 | ≥ 250 | – | < 50 | < 50 | < 50 | – | ≥ 250

More lines, main results first:

Row | IC50 (EGFR L858R/T790M; [5]) [nM] | IC50 [1, 5] [nM] | GI50 [2] [nM] | GI50 [3] [nM] | IC50 (EGFR L858R; [5]) [nM] | IC50 (EGFR L858R/T790M; [6]) [nM] | IC50 ([1]; human EGFR native sequence) [nM] | IC50 (EGFR L858R; EGFR L858R) [nM] | SMILES | IC50 ([4]; BAF3 parental cells) [nM] | IC50 ([4]; BAF3 PARENTAL cells (control)) [nM]
13 | < 50 | < 50 | < 50 | < 50 | < 50 | – | – | – | C=CC(=O)Nc1cc(Nc2ncc(Cl)c(Nc3ccccc3P(C)(C)=O)n2)c(OC)cc1C#CCN(C)CC [Example 162, N-(5-((5-chloro-4-((2-(dimethylphosphoryl)phenyl)amino)pyrimidin-2-yl)amino)-2-(3-(ethyl(methyl)amino)prop-1-yn-1-yl)-4-methoxyphenyl)acrylamide] | ≥ 250 | –
14 | < 50 | < 50 | < 50 | < 50 | < 50 | – | – | – | C=CC(=O)Nc1cc(Nc2ncc(Cl)c(Nc3ccccc3P(C)(C)=O)n2)c(OC)cc1O[C@@H](COC)CN(C)C [Example 129, (R)-N-(5-((5-chloro-4-((2-(dimethylphosphoryl)phenyl)amino)pyrimidin-2-yl)amino)-2-((1-(dimethylamino)-3-methoxypropan-2-yl)oxy)-4-methoxyphenyl)acrylamide] | ≥ 250 | –
15 | – | – | < 50 | < 50 | – | < 50 | < 50 | < 50 | COc1ccc(NC(=O)/C=C/Cl)cc1Nc1ncc(Cl)c(Nc2ccccc2P(C)(C)=O)n1 [Example 78, (E)-3-chloro-N-(3-((5-chloro-4-((2-(dimethylphosphoryl)phenyl)amino)pyrimidin-2-yl)amino)-4-methoxyphenyl)acrylamide] | – | ≥ 250
16 | – | – | < 50 | < 50 | – | < 50 | < 50 | < 50 | C=CC(=O)Nc1cc(Nc2ncc(Cl)c(Nc3ccccc3P(C)(C)=O)n2)c(OC)cc1OCC1CCCCN1C (stereo not drawn) [Example 7, N-(5-((5-chloro-4-((2-(dimethylphosphoryl)phenyl)amino)pyrimidin-2-yl)amino)-4-methoxy-2-((1-methylpiperidin-2-yl)methoxy)phenyl)acrylamide] | – | ≥ 250
17 | < 50 | < 50 | < 50 | < 50 | < 50 | – | – | – | COc1ccc(NC(=O)CCl)cc1Nc1ncc(Cl)c(Nc2ccccc2P(C)(C)=O)n1 [Example 137, 2-chloro-N-(3-((5-chloro-4-((2-(dimethylphosphoryl)phenyl)amino)pyrimidin-2-yl)amino)-4-methoxyphenyl)acetamide] | ≥ 250 | –
